# Calls of active or inactive are those of the source. The rule behind the calls is not given here.
# Columns and labels:
# [1] = system: Aspergillus niger; experiment: Antifungal activity against Aspergillus niger MSCL 324 at 10 mg/ml after 48 hrs by agar dish diffusion method; type: functional; conditions: MSCL 324, 48 h, read-out: DIZ
# [2] = system: Aspergillus niger; experiment: Antifungal activity against Aspergillus niger MSCL 324 at 5 mg/ml after 48 hrs by agar dish diffusion method; type: functional
# [3] = system: MG-22A; experiment: Induction of nitric oxide production in mouse MG-22A cells by Griess assay; type: functional; parameters: concentration or dose not given beside the values
# [4] = system: Candida albicans; experiment: Antifungal activity against Candida albicans MSCL 378 at 5 mg/ml after 48 hrs by agar dish diffusion method; type: functional; conditions: MSCL 378, 48 h, read-out: DIZ
# [5] = system: Staphylococcus aureus; experiment: Antibacterial activity against Staphylococcus aureus MSCL 334 at 5 mg/ml after 24 hrs by agar dish diffusion method; type: functional; conditions: MSCL 334, 24 h, read-out: DIZ
# [6] = system: Bacillus cereus; experiment: Bactericidal activity against Bacillus cereus MSCL 330 incubated for 24 hrs followed by colony transfer to agar plates for 24 hrs by colony counting based assay; type: functional; conditions: MSCL 330, 24 h, read-out: MBC99.9
# [7] = system: Staphylococcus aureus; experiment: Antibacterial activity against Staphylococcus aureus MSCL 334 after 24 hrs by broth dilution method; type: functional; conditions: MSCL 334, 24 h
# [8] = system: Proteus mirabilis; experiment: Antibacterial activity against Proteus mirabilis MSCL 590 at 10 mg/ml after 24 hrs by agar dish diffusion method; type: functional
# [9] = system: Aspergillus niger; experiment: Fungicidal activity against Aspergillus niger MSCL 324 incubated for 24 hrs followed by colony transfer to agar plates for 24 hrs by colony counting based assay; type: functional; conditions: MSCL 324, 24 h, read-out: MFC99.9
# [10] = system: MG-22A; experiment: Cytotoxicity against mouse MG-22A cells assessed as cell viability at 6.25 to 50 ug/ml by crystal violet-based assay; type: functional; conditions: read-out: LC50 (the source's name)
# [11] = system: Staphylococcus aureus; experiment: Antibacterial activity against Staphylococcus aureus MSCL 334 at 10 mg/ml after 24 hrs by agar dish diffusion method; type: functional; conditions: MSCL 334, 24 h, read-out: DIZ
# [12] = system: Staphylococcus aureus; experiment: Bactericidal activity against Staphylococcus aureus MSCL 334 incubated for 24 hrs followed by colony transfer to agar plates for 24 hrs by colony counting based assay; type: functional; conditions: MSCL 334, 24 h, read-out: MBC99.9
# [13] = system: Pseudomonas aeruginosa; experiment: Antibacterial activity against Pseudomonas aeruginosa MSCL 331 at 5 mg/ml after 24 hrs by agar dish diffusion method; type: functional
# [14] = system: Proteus mirabilis; experiment: Antibacterial activity against Proteus mirabilis MSCL 590 at 5 mg/ml after 24 hrs by agar dish diffusion method; type: functional
# [15] = system: Pseudomonas aeruginosa; experiment: Antibacterial activity against Pseudomonas aeruginosa MSCL 331 at 10 mg/ml after 24 hrs by agar dish diffusion method; type: functional
# [16] = system: Candida albicans; experiment: Antifungal activity against Candida albicans MSCL 378 after 24 hrs by broth dilution method; type: functional; conditions: MSCL 378, 24 h
# [17] = system: Escherichia coli; experiment: Antibacterial activity against Escherichia coli MSCL 332 after 24 hrs by broth dilution method; type: functional; conditions: MSCL 332, 24 h
# [18] = system: Aspergillus niger; experiment: Antifungal activity against Aspergillus niger MSCL 324 after 24 hrs by broth dilution method; type: functional; conditions: MSCL 324, 24 h
# [19] = Cytotoxicity against human HT1080 cells assessed as cell viability at 6.25 to 50 ug/ml after 72 hrs by MTT assay; type: functional; conditions: HT-1080, 72 h, read-out: LC50 (the source's name)
# [20] = system: Candida albicans; experiment: Fungicidal activity against Candida albicans MSCL 378 incubated for 24 hrs followed by colony transfer to agar plates for 24 hrs by colony counting based assay; type: functional; conditions: MSCL 378, 24 h, read-out: MFC99.9
# [21] = system: Candida albicans; experiment: Antifungal activity against Candida albicans MSCL 378 at 10 mg/ml after 48 hrs by agar dish diffusion method; type: functional; conditions: MSCL 378, 48 h, read-out: DIZ
# [22] = system: Bacillus cereus; experiment: Antibacterial activity against Bacillus cereus MSCL 330 after 24 hrs by broth dilution method; type: functional; conditions: MSCL 330, 24 h
# [23] = system: HT-1080; experiment: Induction of nitric oxide production in human HT1080 cells by Griess assay; type: functional; parameters: concentration or dose not given beside the values
# [24] = system: Escherichia coli; experiment: Bactericidal activity against Escherichia coli MSCL 332 incubated for 24 hrs followed by colony transfer to agar plates for 24 hrs by colony counting based assay; type: functional; conditions: MSCL 332, 24 h, read-out: MBC99.9
# [25] = Cytotoxicity against human HT1080 cells assessed as cell viability at 6.25 to 50 ug/ml by crystal violet-based assay; type: functional; conditions: HT-1080, read-out: LC50 (the source's name)
# [26] = system: Escherichia coli; experiment: Antibacterial activity against Escherichia coli MSCL 332 at 5 mg/ml after 24 hrs by agar dish diffusion method; type: functional
# [27] = system: Bacillus cereus; experiment: Antibacterial activity against Bacillus cereus MSCL 330 at 5 mg/ml after 24 hrs by agar dish diffusion method; type: functional; conditions: MSCL 330, 24 h, read-out: DIZ
# [28] = system: MG-22A; experiment: Cytotoxicity against mouse MG-22A cells assessed as cell viability at 6.25 to 50 ug/ml after 72 hrs by MTT assay; type: functional; conditions: read-out: LC50 (the source's name)
# [29] = Cytotoxicity against mouse NIH/3T3 cells assessed as cell viability at 6.25 to 50 ug/ml by neutral red-based assay; conditions: nih3t3
# [30] = system: Escherichia coli; experiment: Antibacterial activity against Escherichia coli MSCL 332 at 10 mg/ml after 24 hrs by agar dish diffusion method; type: functional
# [31] = system: Bacillus cereus; experiment: Antibacterial activity against Bacillus cereus MSCL 330 at 10 mg/ml after 24 hrs by agar dish diffusion method; type: functional; conditions: MSCL 330, 24 h, read-out: DIZ
Compound,zone of inhibition at 10000 µg/mL [1],Activity [3],zone of inhibition at 5000 µg/mL [4],zone of inhibition at 5000 µg/mL [5],MBC [6],MIC [7],diameter of the inhibition zone (DIZ) [8],MFC [9],CC50 [10],zone of inhibition at 10000 µg/mL [11],MBC [12],diameter of the inhibition zone (DIZ) [13],diameter of the inhibition zone (DIZ) [14],diameter of the inhibition zone (DIZ) [15],MIC [16],MIC [18],CC50 [19],MFC [20],zone of inhibition at 10000 µg/mL [21],MIC [22],further results
CCCCCCCOCCc1sc[n+](C)c1C.[I-],11 mm,100%,13 mm,20 mm,> 256 µg/mL,16 µg/mL,inactive,> 256 µg/mL,20.8 µM,21 mm,64 µg/mL,inactive,inactive,inactive,256 µg/mL,> 256 µg/mL,15.6 µM,> 256 µg/mL,20 mm,> 256 µg/mL,"diameter of the inhibition zone (DIZ) [2]: inactive; MIC [17]: 256 µg/mL; Activity [23]: 200%; MBC [24]: 256 µg/mL; CC50 [25]: 15.6 µM; zone of inhibition at 5000 µg/mL ([26]; MSCL 332, 24 h, read-out: DIZ): 11 mm; zone of inhibition at 5000 µg/mL [27]: 12 mm; CC50 [28]: 18.2 µM; LC50 [29]: 467.3 µM; zone of inhibition at 10000 µg/mL ([30]; MSCL 332, 24 h, read-out: DIZ): 16 mm; zone of inhibition at 10000 µg/mL [31]: 13 mm"
CCCCCCCOCCc1scnc1C,15 mm,200%,13 mm,11 mm,> 256 µg/mL,16 µg/mL,inactive,256 µg/mL,37.3 µM,15 mm,64 µg/mL,inactive,inactive,inactive,64 µg/mL,16 µg/mL,70.5 µM,128 µg/mL,13 mm,64 µg/mL,"zone of inhibition at 5000 µg/mL ([2]; MSCL 324, 48 h, read-out: DIZ): 15 mm; Activity [23]: 200%; CC50 [25]: 62.2 µM; diameter of the inhibition zone (DIZ) [26]: inactive; zone of inhibition at 5000 µg/mL [27]: 12 mm; CC50 [28]: 49.7 µM; LC50 [29]: 224 µM; diameter of the inhibition zone (DIZ) [30]: inactive; zone of inhibition at 10000 µg/mL [31]: 12 mm"
